Assay [1] deals with Abcd1− mice spinal cord. Put plainly: Mitochondrial depletion and bioenergetic failure in Abcd1− mice spinal cord. Particulars: 12 months of age, DMF 100 mg/kg/day in chow for 4 months. Format: in vivo. As to the method: b) NRF2-dependent antioxidative genes (Hmox1, Nqo1 and Gst α 3) expression in WT (n=8), Abcd1^− (n=8) and Abcd1^−+DMF (n=8) mice spinal cord at 12 months of age. Gene expression levels were normalized relative to Rplp0. Quantification is represented as fold change to WT mice. c) Mitochondrial DNA (mtDNA) levels in WT (n=8), Abcd1^− (n=8) and Abcd1^−+DMF (n=8) mice spinal cord at 12 months of age. mtDNA content was measured by quantitative RT-PCR and expressed as the ratio of mtDNA (CytB levels) to nuclear DNA (nDNA, Cebpa levels). Quantification is depicted as fold change to WT mice. d) Sirt1, Pgc-1α, Nrf1 and Tfam expression was measured by quantitative RT-PCR in WT (n=8), Abcd1^− (n=8) and Abcd1^−+DMF (n=8) mice spinal cord at 12 months of age. Gene expression levels were normalized relative to Rplp0. Quantification is depicted as fold change to WT mice. e) ATP levels in WT (n=8), Abcd1^− (n=8) and Abcd1^−+DMF (n=8) mice spinal cord at 12 months of age. Quantification is represented as fold change to WT mice. Data are shown as mean±SD (*p<0.05, **p<0.01, ***p<0.001 after one-way ANOVA test followed by Tukey's post-hoc test; #p<0.05 after one-way ANOVA test followed by Dunnett's post-hoc test; p<0.05, p<0.01 after non-parametric Kruskal-Wallis' test).
(§1) Cages contained 3 to 5 animals.
(§2) We used two X-ALD mouse models in this study. We characterized the biochemical signs of adult X-ALD in Abcd1^− mice at 12 months of age. These mice show biochemical signs of pathology, including oxidative stress and energetic homeostasis impairment, before the first clinical signs of AMN-like pathology (axonopathy and locomotor impairment) appear at 20 months.
For biochemical analysis, we killed the mice and stored the tissues at −80° C. after snap-freezing them in liquid nitrogen. For histological analysis, spinal cord was harvested from 18-month-old mice after perfusing them with 4% paraformaldehyde (PFA; Sigma-Aldrich, Ref. 441244) in 0.1 M phosphate buffer pH 7.4. […]

For assay [2], the system named is Abcd1− mice spinal cord. The experiment in a line: Inflammatory profile (quantitative RT-PCR) and oxidative lesions (GC/MS) in Abcd1− mice spinal cord. Format: in vivo. Particulars: 12 months of age. As to the method:
a) Th1 (Nfκb2, Il1β, Il6, Tnfα, Tnfrsf1a, Ccl5, Cxcl9, Cxcl10, Ccr6) and b) Th2 (Fizz1, Chil3, Cxcl12, Il10, Igf1, Mif, Tgfβ1) inflammatory profile in WT (n=8), Abcd1^− (n=8) and Abcd1^−+DMF (n=8) mice spinal cord at 12 months of age. Cytokines, chemokines and other inflammation-related genes expression was measured by quantitative RT-PCR. Gene expression levels were normalized relative to Rplp0. Quantification is depicted as fold change to WT mice. c) Oxidative lesions to lipids and proteins in WT (n=5), Abcd1^− (n=5) and Abcd1^−+DMF (n=5) mice spinal cord at 12 months of age. AASA, CEL, CML and MDAL levels were measured by GC/MS. Quantification is represented as fold change to WT mice. Data are shown as mean±SD (*p<0.05, **p<0.01, ***p<0.001 after one-way ANOVA test followed by Tukey's post-hoc test; p<0.05, p<0.01, p<0.001 after non-parametric Kruskal-Wallis' test).
as §1, §2
For biochemical analysis, we killed the mice and stored the tissues at −80° C. after snap-freezing them in liquid nitrogen. For histological analysis, spinal cord was harvested from 18-month-old mice after perfusing them with 4% paraformaldehyde (PFA; Sigma-Aldrich, Ref. 441244) in 0.1 M phosphate buffer pH 7.4. Histological and behavioural tests were performed in a blind way with respect to the animal's genotype and for the treatment administered.
In Abcd1^− mouse, a functional genomics assay detected NFκB-mediated inflammatory pathway activation in Abcd1^− mouse spinal cord, and increased expression of several proinflammatory genes. Regarding AMN patients, we have recently described a general dysregulation of inflammatory pathways in peripheral blood mononuclear cells (PBMCs) and plasma from AMN patients. As DMF is a classical immunomodulatory drug, we examined its effects on mRNA expression of several inflammation-related genes in Abcd1^− mice spinal cord.
Nuclear factor kappa B subunit 2 (Nfκb2), which belongs to the non-canonical NFκB pathway, as well as the majority of M1 markers were increased in Abcd1^− mouse spinal cord, including interleukin 1 beta (Il1β), tumour necrosis factor alpha (Tnfα), tumour necrosis factor receptor superfamily member 1a (Tnfrsf1a), chemokine (C-C motif) ligand 5 (Ccl5), chemokine (C-X-C motif) ligand 9 (Cxcl9), chemokine (C-X-C motif) ligand 10 (Cxcl10) and chemokine (C-C motif) receptor type 6 (Ccr6) (FIG. 2a). […] Only few of them were decreased in Abcd1^− mouse spinal cord: interleukin 6 ([…]), resistin like alpha (Retnla, also called Fizz1) and macrophage migration inhibitory factor (Mif) (FIG. 2a-b).

Where [3] appears, read: Abcd1− mouse spinal cord, DMF 100 mg/kg/day in chow.

SMILES strings stand for the structures. Where a name gives a salt, the structure may show the parent alone.

`COC(=O)/C=C/C(=O)OC` [DMF, dimethyl fumarate]: in the assay with Abcd1− mice spinal cord [1] (Abcd1− mouse spinal cord), the “mitochondrial DNA (mtDNA) levels” value is “normalized” and the “mitochondrial biogenesis genes mRNA expression (Sirt1, Pgc-1α, Nrf1, Tfam)” value is recorded as “normalized”. Further, in the assay on Abcd1− mice spinal cord [1] (X-ALD (Abcd1−) mouse spinal cord), the ATP levels result is reported as “normalized”. Besides, the “oxidative damage to proteins and lipids (AASA, CEL, CML, MDAL)” value in the assay with Abcd1− mice spinal cord [2] (Abcd1− mice spinal cord, DMF 100 mg/kg/day in chow for 4 months) is “prevents”. In the assay with Abcd1− mice spinal cord [2] (setting [3]), the “Il1β and Chil3 mRNA” value was “exacerbated the induction”; the “Tnfrsf1a, Cxcl9 and Fizz1 mRNA” value is “no effect”; the “interleukin 10 (Il10) mRNA” value is given as “upregulated”; the “mRNA levels of Nfκb2, Il6, Tnfα, Ccl5, Cxcl10, Ccr6, Mif, Cxcl12, Tgfβ1, Igf1” value is “normalizing”.

(Values after patent US11382889B2, “NRF2 activators for the prevention and/or treatment of axonal degeneration” (priority 2018, dated 2022).)
